According to patent US20150174207A1, “METHODS FOR TREATING CANCER WITH GHRH AGONISTS” (UNIVERSITY OF MIAMI, priority 2013, published 2015):
“Also recorded” adds a separate entry of the source. Marks after values point to notes of the source that are not given here. [ ]: non-standard residue; d: D form. The star is where a group is joined. Desaminotyrosyl = O=C(CCc1ccc(O)cc1)*; Agmatine = N=C(N)NCCCCN*; Nle = CCCC[C@H](N)C(=O)O; Orn = NCCC[C@H](N)C(=O)O; Abu = CC[C@H](N)C(=O)O

Assays:
U-87 MG cells [1] = test: MTT proliferation assay in vitro; format: cell-based, human; conditions: JI-34 1 μM, DOX 100 nM; combination: 24 h JI-34 pretreatment, then DOX+JI-34 48 h
Protocol: For proliferation studies, 104 cells per well were seeded in 100 μL media, in a 96-well plate, and incubated for 24 h in a humidified incubator at 37° C. Then, culture medium was replaced with FBSfree medium (starvation) for 24 h. After 24 h, the cells received full medium containing the following treatments: Groups 1 (control) and 3, vehicle solution; groups 2 and 4, JI-34 (1 μM final concentration). After another 24 h, the cells received the following treatments: group 1, vehicle solution; group 2, JI-34; group 3, DOX (100 nM final concentration); and group 4, JI-34+DOX. Then, they were incubated for 48 h and the effect on cell proliferation was evaluated by using the MTT assay (CellTiter 96 Non-Radioactive Cell Proliferation Assay; Promega), according to the manufacturer's instructions with the help of a Victor3 multilabel counter (Perkin-Elmer).

U-87 MG cells [2] = test: Cell counting after repeated exposure for 3 wk (Coulter Counter); format: cell-based, human; conditions: repeated exposure 3 wk, 1 μM JI-34 daily, DOX weekly at 100 nM; vs. control
Protocol: (§1) U-87 MG cells were cultured in Eagle's minimum essential medium (ATCC) medium [supplemented with 10% FBS (ATCC) and 0.1% penicillin/streptomycin] at 37° C. and 5% CO2 atmosphere. For cell count and cell size determination, […] were seeded into T-25 flasks. The medium was changed two to three times a week. The following treatment in vitro groups were set up: (Group 1) control, vehicle solution; (group 2) JI-34 at 1 μM final concentration, daily; (group 3) DOX at 100 nM final concentration, weekly on Thursdays; and (group 4) JI-34, 1 μM and DOX, 100 nM. After 3 wk, cell count and cell size were determined by Z Series Coulter Counter (Beckman Coulter).

U-87 MG xenografts = test: Western blot of necropsied in vivo tumor samples; set-up: species or system nude mice; conditions: xenograft samples after 6 wk treatment
Protocol: (§2) Six-wk-old nude mice (Ncr nu/nu) were obtained from the National Cancer Institute (Bethesda, Md.). The animals were housed in sterile cages in a temperature-controlled room with a 12-h light/12-h dark schedule and were fed with autoclaved chow and water, ad libitum. The Institutional Animal Care and Use Committee, VA Medical Center Miami, Fla. fully approved the animal protocols. For the therapy study, 10^6 cells per mouse of the human glioblastoma cell line, U-87 MG (American Type Culture Collection, ATCC), were injected into the flanks of four nude mice (Ncr nu/nu) under isoflurane anesthesia (Baxter). A month later, the resulting tumors were harvested and minced into ˜3 mm^3 pieces and transplanted into flanks of nude mice, under anesthesia, using a minitrocar. When the tumors reached ˜32 mm^3, the mice were randomized into four groups. The animals received the following treatments for 6 wk: (Group 1) control, 16 tumors, vehicle solution; (group 2) agonist JI-34, 1 μg/20 g, s.c., daily, 19 tumors; (group 3) DOX, 260 nmol/20 g, i.v., weekly on Thursdays, 19 tumors; and (group 4) JI-34 (1 μg/20 g daily)+DOX (260 nmol/20 g), 16 tumors. Tumor volume was measured with microcalipers once a week and calculated using the formula: (length×width×height×in)/6. Tumor doubling time was calculated using the formula: [study duration×logarithm (LOG) 2]/(LOG final tumor volume−LOG initial tumor volume). At the end of the experiment, the mice were killed under pentobarbital anesthesia, tumors were excised and weighed; necropsy was performed. Samples free of necrotic debris were immediately snap frozen in liquid nitrogen and stored at −80° C. for further analyses.
Protein from the tumor tissue was isolated using the NucleoSpin kit (Macherey-Nagel). Protein concentrations were determined by NanoDrop (NanoDrop Technologies). Equal amounts of protein were resuspended in sample loading buffer (0.25 M Trizma Base, 8% SDS, 40% glycerol, 0.004% bromophenol blue, 4% P3-mercaptoethanol; pH 6.8), boiled for 3 min and separated by 12% SDS-polyacrylamide gel electrophoresis. Proteins from the gel were then transferred onto nitrocellulose membranes, which were blocked with 50-50% Tris-buffered saline (20 mM Tris.HCl pH 7.5, 150 mM NaCl) and Odyssey blocking buffer for 1 h at room temperature, followed by an overnight incubation at 4° C. with the following primary antibodies: growth hormone-releasing hormone receptor (GHRH-R), (ab28692) nestin (ab92391), glial fibrillary acid protein (GFAP) (ab48050) (all from AbCam), β-actin (A5441; Sigma-Aldrich), or p53 (9282; Cell Signaling Technology). […] The protein bands were quantified using […] (LI-COR Biosciences); integrated density values of triplicate experiments were plotted.

U-87 cell-derived tumors = test: Human Cancer PathwayFinder quantitative PCR array of dissected tumor samples; format: in vivo, nude mice; conditions: tumors after 6 wk treatment; fold change (ΔΔCt) vs. control
Protocol: as §2, with “The animals received the following treatments for 6 wk: (Group 1) control, 16 tumors, vehicle solution; (group 2) agonist JI-34, 1 μg/20 g, s.c., daily, 19 tumors; (group 3) DOX, 260 nmol/20 g, i.v., weekly on Thursdays, 19 tumors; and (group 4) JI-34 (1 μg/20 g daily)+DOX (260 nmol/20 g), 16 tumors.” left out, “At the end of the experiment, the mice were killed under pentobarbital anesthesia, tumors were excised and weighed; necropsy was performed. Samples free of necrotic debris were immediately snap frozen in liquid nitrogen and stored at −80° C. for further analyses.” left out
Total RNA was isolated from representative, DNase treated, U-87 MG dissected tumor samples using a NucleoSpin kit according to the manufacturer's instructions (Macherey-Nagel). Four tumor samples from each group were analyzed. The yield and the quality of RNA samples were determined spectrophotometrically using 260 nm, and 260/280- and 260/230-nm ratio. […]
The Human Cancer PathwayFinder quantitative PCR array (PAHS-033A; Qiagen) used in our study contains 84 unique genes related to cell proliferation, apoptosis, cell cycle, angiogenesis, invasion, and metastasis. […] Fold changes in gene expression were calculated using the ΔΔCt method and five stably expressed housekeeping genes (B2M, HPRT1, RPL13A, GAPDH, and ACTB) were used for normalization of the results.

U-87 MG cells [3] = test: Cell volume determination (intracellular water space, 3-OMG); format: cell-based, human; conditions: repeated exposure 3 wk, 1 μM JI-34 daily, DOX weekly at 100 nM; vs. control
Protocol: as §1
Cell volume was estimated by measuring the intracellular water space as follows. Briefly, 1 mM 3-O-methylglucose (3-OMG) and 0.5 μCi/mL [3H]-3-OMG were added to the culture 6 h before the volume assay. At the end of the incubation period, culture medium was aspirated, and an aliquot was saved for radioactivity determination. […] Radioactivity in the cell extracts and media was determined, and an aliquot of the cell extract was used for protein estimation with the Bio-Rad bicinchoninic acid kit. Values were normalized to protein level, and cell volume was expressed as microliters/milligram protein.

U-87 MG cells [4] = test: ApoLive-Glo Multiplex assay (viability and apoptosis); format: cell-based, human; conditions: JI-34 1 μM, DOX 100 nM, after 24 h of treatment
Protocol: Determinations of viability and apoptosis were performed from freshly seeded cell samples (10^4 cells per well, in 100 μL media, in a 96-well plate) with the help of ApoLive-Glo Multiplex Assay (Promega), according to the manufacturer's instructions. First the cells received full medium containing the following treatments: Groups 1 (control) and 3, vehicle solution; groups 2 and 4, JI-34 (1 μM final concentration). After 24 h, the cells received the following treatments: group 1, (vehicle solution); group 2, JI-34; group 3, DOX (100 nM final concentration); and group 4, JI-34+DOX. After another 24 h of incubation, viability reagent was added to the wells and fluorescence was measured by Victor3 multilabel counter. Then Caspase-Glo 3/7 apoptosis reagent was added and luminescence was determined.

[5] = system: U-87 MG, human GBM tumors; test: Growth of U-87 MG glioblastoma xenografts in nude mice; format: in vivo; conditions: U-87 MG xenografts in nude mice, 6 wk; JI-34 50 μg/kg/d s.c., DOX 13 μmol/kg/wk i.v.; vs. control
Protocol: as §2, with “The animals received the following treatments for 6 wk: (Group 1) control, 16 tumors, vehicle solution; (group 2) agonist JI-34, 1 μg/20 g, s.c., daily, 19 tumors; (group 3) DOX, 260 nmol/20 g, i.v., weekly on Thursdays, 19 tumors; and (group 4) JI-34 (1 μg/20 g daily)+DOX (260 nmol/20 g), 16 tumors.” left out, “At the end of the experiment, the mice were killed under pentobarbital anesthesia, tumors were excised and weighed; necropsy was performed. Samples free of necrotic debris were immediately snap frozen in liquid nitrogen and stored at −80° C. for further analyses.” left out

U-87 MG cells [6] = test: Multidrug resistance (MDR) assay, calcein retention; format: cell-based, human; conditions: JI-34 1 μM pretreatment 24 h, DOX 100 nM, cyclosporin-A 1/1,000 dilution; 1 h; vs. control
Protocol: The multidrug resistance assays were performed according to the manufacturer's instructions (Cayman Chemical). U-87 MG cells were seeded, 5×10^4 cells per well density in 100 μL medium in 96-well, black, clear-bottom plates and grown overnight in a humidified incubator at 37° C. […] Afterward, the cells were incubated for 1 h, then calcein AM/Hoechst dye combined staining solution was added. Fifteen minutes later, both cell density (at excitation and emission wavelengths of 355 nm and 465 nm, respectively) and calcein retention (at excitation and emission wavelengths of 485 nm and 535 nm, respectively) were detected with the help of a Victor3 multilabel counter. Relative calcein retention values were expressed as a function of cell density.

U-87 MG cells [7] = test: ELISA of p53, FGF basic and TGFβ; format: cell-based, human; conditions: cell culture supernatant, 1 μM JI-34; vs. control
Protocol: Glioblastoma cells (10^5 cells per well) were seeded onto six-well plates, cultured overnight, and then exposed to compounds used in the 3-(4,5-dimethylthiazol-2-yl)-2,5-diphenyltetrazolium bromide proliferation assays: Groups 1 (control) and 3, vehicle solution; groups 2 and 4, GHRH agonists JI-34 (1 μM final concentration). After another 24 h, the cells received the following treatments: Group 1, vehicle solution; group 2, JI-34; group 3, doxorubicin (DOX) (100 nM final concentration); and group 4, JI-34+DOX. Concentrations of the specific proteins in the medium (in the case of FGF basic or TGFβ-1) or in samples of scraped and homogenized cells (in the case of p53) were determined after 24 h using ELISA kits according to the manufacturer's instructions. Human TGFβ and FGF basic ELISA kits were obtained from AbCam, whereas p53 was measured with a PathScan Sandwich ELISA kit (Cell Signaling Technology). Readings were normalized to protein concentrations as determined by NanoDrop (NanoDrop Technologies).

U-87 MG cells [8] = test: Immunocytochemistry / differentiation in reduced serum-containing medium; format: cell-based, human; conditions: JI-34 1 μM, 0.1% FBS-containing medium, 2 d; vs. DMSO control
Protocol: Cells were seeded onto coverslips in six-well plates (50,000 cells per well) in 10% FBS-containing growth medium. This medium was replaced with serum-free medium the following day for 24 h. Thereafter, GHRH agonist (JI-34, 1 μM) was added in medium supplemented with 0.1% FBS and remained for the consecutive 2 d. Control cells received vehicle (DMSO). At the end of the treatment, phase-contrast images of live cells were collected and cells were fixed in ice-cold acetone for 10 min, washed with PBS three times, and blocked with 2% goat serum in PBS for 30 min. GFAP (Abcam; 1:500 dilution) or nestin (BD Transduction Laboratories; 1:75 dilution) antibodies were added in PBS for 1 h. Anti-rabbit and anti-mouse secondary antibodies (Alexa Fluor 488; Jackson Immunoresearch) were also applied for 1 h. Coverslips were mounted in Vectashield mounting medium containing DAPI for nuclear staining (Vector Laboratories). Images were acquired on a Nikon Eclipse Ti fluorescence microscope (Nikon Instruments).

Compound	inhibitory effect on proliferation (MTT) (U-87 MG cells [1])	decrease in the number of cells (U-87 MG cells [2])	expression of GFAP (U-87 MG xenografts)	expression of the neuroectodermal stem-cell marker nestin (U-87 MG xenografts)	Relative expression of B-cell lymphoma 2 (Bcl-2) (U-87 cell-derived tumors)	Relative expression of Integrin α3 (CD49C) (U-87 cell-derived tumors)	Relative expression of S100 calcium binding protein A4 (S100-A4) (U-87 cell-derived tumors)	decrease in the volume of the cells (intracellular water content) (U-87 MG cells [3]) [%]	increase in apoptosis (U-87 MG cells [4])	inhibition of tumor growth [5] [%]	increase in calcein retention (U-87 MG cells [6]) [%]	decrease in level of TGFβ (U-87 MG cells [7]) [%]	decrease in level of bFGF (U-87 MG cells [7]) [%]	increase in GFAP expression (integrated density values) (U-87 MG xenografts; compared with the control) [%]	GFAP labeling (immunofluorescence) (U-87 MG cells [8])	nestin level (immunofluorescence) (U-87 MG cells [8])
COc1cccc2c1C(=O)c1c(O)c3c(c(O)c1C2=O)C[C@@](O)(C(=O)CO)C[C@@H]3O[C@H]1C[C@H](N)[C@H](O)[C@H](C)O1 [DOX, doxorubicin]	no significant effect	52%	decrease	increased	−1.8*	−1.65*	−2.34*	20	182%	35	7	–	–	–	–	–
[Dat^1, Orn^12, Abu^15, Orn^21, Nle^27, Asp^28, Agm^29]hGHRH(1-29)NH2 ([Desaminotyrosyl]ADAIFTNSYR[Orn]VL[Abu]QLSAR[Orn]LLQDI[Nle]D[Agmatine]-NH2) [JI-34]	no significant effect	no significant effect	–	decreased	–	–	–	–	no effect	–	–	24	37	70	high levels of GFAP were detected; also recorded: elevation in the intensity of GFAP-labeling	did not change notably; also recorded: did not show a significant change
